In brackets after ≈: the same amount, converted by molar mass. Like-named read-outs stand apart in the source and are kept apart here.
Experiments:
Test in all cases: Antibiotic activity (MIC), Table 1
Type in all cases: cell-based
S. aureus 209P JC-1 = test system: S. aureus 209P JC-1
S. faecalis Imanari = test system: S. faecalis Imanari
E. coli NIHJ JC-2 = test system: E. coli NIHJ JC-2
[1] = test system: P. inconstans GN1554 (AAC(2'))
E. coli R176 (AAC(3)-II) = test system: E. coli R176 (AAC(3)-II)
P. aeruginosa NCTC 10490 = test system: P. aeruginosa NCTC 10490
P. maltophilia IID 1275 = test system: P. maltophilia IID 1275
P. cepacia 11D 1340 = test system: P. cepacia 11D 1340
P. putida IID 5121 = test system: P. putida IID 5121
E. coli JR 88 (AAC(3)-I) = test system: E. coli JR 88 (AAC(3)-I)
P. inconstans 93 = test system: P. inconstans 93
[2] = test system: K. pneumoniae 4687 (AAD(2"))
E. cloacae IID 977 = test system: E. cloacae IID 977
[3] = test system: P. aerugionosa TK-157 (APH(3')-II)
[4] = test system: P. aeruginosa RST-1 (AAC(3)-III)
B. subtilis ATCC 6633 = test system: B. subtilis ATCC 6633
[5] = test system: P. aeruginosa 99 (AAC(3)-I)
[6] = test system: P. aeruginosa GN315 (AAC(6')-IV)
S. marcescens NHL = test system: S. marcescens NHL
E. coli ML 1410 = test system: E. coli ML 1410
[7] = test system: P. aeruginosa TI 13 (APH(3')-I)
K. pneumoniae PCI 602 = test system: K. pneumoniae PCI 602
P. vulgaris IID 874 = test system: P. vulgaris IID 874
[8] = test system: E. coli ML 1410 R83 (APH(3')-II)
[9] = test system: E. coli ML 1410 R102 (AAD(2"))
[10] = test system: E. coli ML 1410 R82 (AAD(3"))
[11] = test system: E. coli ML 1410 R81 (APH(3')-I)
[12] = Staphylococcus aureus, 209P, read-out: MIC
[13] = Enterococcus faecalis, read-out: MIC
[14] = Escherichia coli, NIHJJC2, E. coli NIHJ JC-2, read-out: MIC
[15] = Providencia alcalifaciens, GN1554, P. inconstans GN1554 (AAC(2')), read-out: MIC
[16] = Escherichia coli, read-out: MIC
[17] = Pseudomonas aeruginosa, NCTC10490, P. aeruginosa NCTC 10490, read-out: MIC
[18] = Stenotrophomonas maltophilia, IID1275, P. maltophilia IID 1275, read-out: MIC
[19] = Burkholderia cepacia, 11D1340, read-out: MIC
[20] = Pseudomonas putida, IID5121, P. putida IID 5121, read-out: MIC
[21] = Providencia alcalifaciens, 93, P. inconstans 93, read-out: MIC
[22] = Klebsiella pneumoniae, read-out: MIC
[23] = Enterobacter cloacae, IID977, E. cloacae IID 977, read-out: MIC
[24] = Pseudomonas aeruginosa, read-out: MIC
[25] = Bacillus subtilis, ATCC6633, B. subtilis ATCC 6633, read-out: MIC
[26] = Pseudomonas aeruginosa, GN315, P. aeruginosa GN315 (AAC(6')-IV), read-out: MIC
[27] = Serratia marcescens, read-out: MIC
[28] = Escherichia coli, ML1410, E. coli ML 1410, read-out: MIC
[29] = Klebsiella pneumoniae, PCI602, K. pneumoniae PCI 602, read-out: MIC
[30] = Proteus vulgaris, IID874, P. vulgaris IID 874, read-out: MIC

CNCC1CCC(NC(=O)C[C@@H](N)CCCN)C(OC2C(N)CC(OC)C(NC)C2O)O1 (stereo partly drawn) [2'-N-β-Lysyl KA-7038VI, 2'-N-(L-β-lysyl)-KA-7038VI]
MIC (S. aureus 209P JC-1; [12]): 0.78 µg/mL (≈ 1.69 µM)
MIC (S. faecalis Imanari; [13]): 1.56 µg/mL (≈ 3.39 µM)
MIC (E. coli NIHJ JC-2; [14]): 1.56 µg/mL (≈ 3.39 µM)
MIC [1, 15]: 0.78 µg/mL (≈ 1.69 µM)
MIC (E. coli R176 (AAC(3)-II); [16]): 1.56 µg/mL (≈ 3.39 µM)
MIC (P. aeruginosa NCTC 10490; [17]): 12.5 µg/mL (≈ 27.1 µM)
MIC (P. maltophilia IID 1275; [18]): 1.56 µg/mL (≈ 3.39 µM)
MIC (P. cepacia 11D 1340; [19]): > 100 µg/mL
MIC (P. putida IID 5121; [20]): 12.5 µg/mL (≈ 27.1 µM)
MIC (E. coli JR 88 (AAC(3)-I); [16]): 3.13 µg/mL (≈ 6.8 µM)
MIC (P. inconstans 93; [21]): 0.78 µg/mL (≈ 1.69 µM)
MIC [2, 22]: 3.13 µg/mL (≈ 6.8 µM)
MIC (E. cloacae IID 977; [23]): 6.25 µg/mL (≈ 13.6 µM)
MIC ([3]; read-out: MIC): 25 µg/mL (≈ 54.3 µM)
MIC [4, 24]: > 100 µg/mL
MIC (B. subtilis ATCC 6633; [25]): 3.13 µg/mL (≈ 6.8 µM)
MIC [5, 24]: > 100 µg/mL
MIC [6, 26]: 100 µg/mL (≈ 217 µM)
MIC (S. marcescens NHL; [27]): 0.78 µg/mL (≈ 1.69 µM)
MIC (E. coli ML 1410; [28]): 1.56 µg/mL (≈ 3.39 µM)
MIC ([7]; Pseudomonas aeruginosa): 25 µg/mL (≈ 54.3 µM)
MIC (K. pneumoniae PCI 602; [29]): 0.78 µg/mL (≈ 1.69 µM)
MIC (P. vulgaris IID 874; [30]): 25 µg/mL (≈ 54.3 µM)

CNC1C(OC)CC(N)C(OC2OC(C(C)N)CCC2N)C1O (centres unmarked) [KA-6606II, reference compound]
MIC (S. aureus 209P JC-1): 25 µg/mL (≈ 75.2 µM)
MIC (S. faecalis Imanari): 100 µg/mL (≈ 301 µM)
MIC (E. coli NIHJ JC-2; E. coli NIHJ JC-2): 50 µg/mL (≈ 150 µM)
MIC ([1]; P. inconstans GN1554 (AAC(2'))): > 100 µg/mL
MIC (E. coli R176 (AAC(3)-II)): > 100 µg/mL
MIC (P. aeruginosa NCTC 10490; P. aeruginosa NCTC 10490): > 100 µg/mL
MIC (P. maltophilia IID 1275; P. maltophilia IID 1275): > 100 µg/mL
MIC (P. cepacia 11D 1340): > 100 µg/mL
MIC (P. putida IID 5121; P. putida IID 5121): > 100 µg/mL
MIC [8]: > 100 µg/mL
MIC (E. coli JR 88 (AAC(3)-I)): > 100 µg/mL
MIC (P. inconstans 93; P. inconstans 93): > 100 µg/mL
MIC [2]: > 100 µg/mL
MIC (E. cloacae IID 977; E. cloacae IID 977): > 100 µg/mL
MIC [3]: > 100 µg/mL
MIC [4]: > 100 µg/mL
MIC [9]: > 100 µg/mL
MIC (B. subtilis ATCC 6633; B. subtilis ATCC 6633): 6.25 µg/mL (≈ 18.8 µM)
MIC [5]: > 100 µg/mL
MIC ([6]; P. aeruginosa GN315 (AAC(6')-IV)): > 100 µg/mL
MIC [10]: > 100 µg/mL
MIC (S. marcescens NHL): 100 µg/mL (≈ 301 µM)
MIC (E. coli ML 1410; E. coli ML 1410): > 100 µg/mL
MIC [7]: > 100 µg/mL
MIC [11]: > 100 µg/mL
MIC (K. pneumoniae PCI 602; K. pneumoniae PCI 602): > 100 µg/mL
MIC (P. vulgaris IID 874; P. vulgaris IID 874): 100 µg/mL (≈ 301 µM)

CNC1C(OC)CC(N)C(OC2OC(C(C)N)CCC2N)C1O (centres unmarked) [KA-6606VIII, reference compound]
MIC (S. aureus 209P JC-1): 0.78 µg/mL (≈ 2.35 µM)
MIC (S. faecalis Imanari): 3.13 µg/mL (≈ 9.42 µM)
MIC (E. coli NIHJ JC-2; E. coli NIHJ JC-2): 3.13 µg/mL (≈ 9.42 µM)
MIC ([1]; P. inconstans GN1554 (AAC(2'))): 1.56 µg/mL (≈ 4.69 µM)
MIC (E. coli R176 (AAC(3)-II)): 3.13 µg/mL (≈ 9.42 µM)
MIC (P. aeruginosa NCTC 10490; P. aeruginosa NCTC 10490): 12.5 µg/mL (≈ 37.6 µM)
MIC (P. maltophilia IID 1275; P. maltophilia IID 1275): 1.56 µg/mL (≈ 4.69 µM)
MIC (P. cepacia 11D 1340; [19]): > 100 µg/mL
MIC (P. putida IID 5121; P. putida IID 5121): 12.5 µg/mL (≈ 37.6 µM)
MIC (E. coli JR 88 (AAC(3)-I); [16]): 50 µg/mL (≈ 150 µM)
MIC (P. inconstans 93; P. inconstans 93): 1.56 µg/mL (≈ 4.69 µM)
MIC [2]: 6.25 µg/mL (≈ 18.8 µM)
MIC (E. cloacae IID 977; E. cloacae IID 977): 12.5 µg/mL (≈ 37.6 µM)
MIC [3]: 25 µg/mL (≈ 75.2 µM)
MIC [4, 24]: 100 µg/mL (≈ 301 µM)
MIC [9]: 0.78 µg/mL (≈ 2.35 µM)
MIC (B. subtilis ATCC 6633; [25]): 3.13 µg/mL (≈ 9.42 µM)
MIC [5, 24]: > 100 µg/mL
MIC [6, 26]: 100 µg/mL (≈ 301 µM)
MIC (S. marcescens NHL): 1.56 µg/mL (≈ 4.69 µM)
MIC (E. coli ML 1410; E. coli ML 1410): 3.13 µg/mL (≈ 9.42 µM)
MIC [7]: 25 µg/mL (≈ 75.2 µM)
MIC (K. pneumoniae PCI 602; K. pneumoniae PCI 602): 0.78 µg/mL (≈ 2.35 µM)
MIC (P. vulgaris IID 874; P. vulgaris IID 874): 12.5 µg/mL (≈ 37.6 µM)

CNCC1CCC(N)C(OC2C(N)CC(OC)C(NC)C2O)O1 (centres unmarked) [KA-7038VI, reference compound]
MIC (S. aureus 209P JC-1; [12]): 25 µg/mL (≈ 75.2 µM)
MIC (S. faecalis Imanari; [13]): 100 µg/mL (≈ 301 µM)
MIC (E. coli NIHJ JC-2; [14]): 50 µg/mL (≈ 150 µM)
MIC [1, 15]: > 100 µg/mL
MIC (E. coli R176 (AAC(3)-II); [16]): > 100 µg/mL
MIC (P. aeruginosa NCTC 10490; [17]): > 100 µg/mL
MIC (P. maltophilia IID 1275; [18]): > 100 µg/mL
MIC (P. cepacia 11D 1340; [19]): > 100 µg/mL
MIC (P. putida IID 5121; [20]): > 100 µg/mL
MIC ([8]; Escherichia coli): > 100 µg/mL
MIC (E. coli JR 88 (AAC(3)-I); [16]): > 100 µg/mL
MIC (P. inconstans 93; [21]): > 100 µg/mL
MIC [2, 22]: > 100 µg/mL
MIC (E. cloacae IID 977; [23]): > 100 µg/mL
MIC ([3]; read-out: MIC): > 100 µg/mL
MIC [4, 24]: > 100 µg/mL
MIC ([9]; Escherichia coli): 100 µg/mL (≈ 301 µM)
MIC (B. subtilis ATCC 6633; [25]): 6.25 µg/mL (≈ 18.8 µM)
MIC [5, 24]: > 100 µg/mL
MIC [6, 26]: > 100 µg/mL
MIC ([10]; Escherichia coli): > 100 µg/mL
MIC (S. marcescens NHL; [27]): > 100 µg/mL
MIC (E. coli ML 1410; [28]): > 100 µg/mL
MIC ([7]; Pseudomonas aeruginosa): 100 µg/mL (≈ 301 µM)
MIC ([11]; Escherichia coli): > 100 µg/mL
MIC (K. pneumoniae PCI 602; [29]): 100 µg/mL (≈ 301 µM)
MIC (P. vulgaris IID 874; [30]): 50 µg/mL (≈ 150 µM)

— US4487924A, “2'-N-β-Lysyl) aminoglycosides” (Kowa Company, Ltd., priority 1982, dated 1984)
